Test results taken from patent publication US20130274174A1, “THERAPEUTIC COMBINATION OF DAPTOMYCIN AND PROTEIN SYNTHESIS INHIBITOR ANTIBIOTIC, AND METHODS OF USE” (priority 2011, published 2013).
In brackets after ≈: the same amount, converted by molar mass. Read-outs that look alike come from different tables or passages of the source.

Tests used:
S. aureus MW2 (NRS123) = assay: microbe, parasite or virus in culture; assay type: cell-based, Staphylococcus aureus; conditions: Staphylococcus aureus
Experimental: S. aureus strains MW2 (NARSA collection clinical MRSA isolate, NRS123) and ATCC 33591 (MRSA strain from the American Type Culture Collection) were cultured on Mueller-Hinton II cation adjusted (MHA) medium in 90×90 mm square petri dishes. MHA containing ¼ of the MIC value of TR-700, TR-705, LZD, TIA, CLI, TET, or VAN, TMP/SMX throughout the plate and a continuous linear gradient of DAP across the plate was used to passage MW2. ATCC 33591 was passaged with ¼ of the MIC of a subset of these drugs (TR-700, TMP/SMX, and VAN). A DAP-only control passage group was included for both strains. DAP gradients were created by pouring two layers of media as previously described (Bryson, V., et al. 1952. Microbial selection. Science 116:45-51; Locke, J. B., et al., 2009. Antimicrob. Agents Chemother. 53:5265-5274). Following each passage the leading edge of growth (i.e., most resistant cells) was resuspended in phosphate buffered saline (PBS) to an absorbance of 0.30 OD600 and a 100 μl aliquot containing ˜3.0×10^7 CFU (colony-forming units) was spread on to the proceeding passage plate. The starting maximal DAP concentration was 2 μg/ml and was increased in two-fold increments when the leading edge of growth surpassed the half way point on the plate. A glycerol stock was made from the total cell population for each culture condition for each passage. Thirty serial passages were completed for each treatment group.

[1] = tested on: S. aureus and enterococci; conditions: Entenza et al. 2010; cited from earlier work

C=C[C@]1(C)C[C@@H](OC(=O)CSCCN(CC)CC)[C@]2(C)[C@H](C)CC[C@]3(CCC(=O)[C@H]32)[C@@H](C)[C@@H]1O [TIA, tiamulin]
MIC (S. aureus MW2 (NRS123); NRS123, passage 0, NRS123 WT): 0.5 µg/mL (≈ 1.01 µM) | MIC (S. aureus MW2 (NRS123); NRS123, passage 5, selection group DAP): 0.5 µg/mL (≈ 1.01 µM) | MIC (S. aureus MW2 (NRS123); NRS123, passage 5, selection group DAP + CLI): 1 µg/mL | MIC (S. aureus MW2 (NRS123); NRS123, passage 5, selection group DAP + LZD): 1 µg/mL | MIC (S. aureus MW2 (NRS123); NRS123, passage 5, selection group DAP + TET): 0.5 µg/mL | MIC (S. aureus MW2 (NRS123); NRS123, passage 5, selection group DAP + TIA): 0.5 µg/mL | MIC (S. aureus MW2 (NRS123); NRS123, passage 5, selection group DAP + TMP/SMX): 0.5 µg/mL | MIC (S. aureus MW2 (NRS123); NRS123, passage 5, selection group DAP + TR-700): 1 µg/mL | MIC (S. aureus MW2 (NRS123); NRS123, passage 5, selection group DAP + TR-705): 1 µg/mL | MIC (S. aureus MW2 (NRS123); NRS123, passage 5, selection group DAP + VAN): 0.5 µg/mL | MIC (S. aureus MW2 (NRS123); NRS123, passage 10, selection group DAP): 0.5 µg/mL (≈ 1.01 µM) | MIC (S. aureus MW2 (NRS123); NRS123, passage 10, selection group DAP + CLI): 1 µg/mL | MIC (S. aureus MW2 (NRS123); NRS123, passage 10, selection group DAP + LZD): 1 µg/mL | MIC (S. aureus MW2 (NRS123); NRS123, passage 10, selection group DAP + TET): 0.5 µg/mL | MIC (S. aureus MW2 (NRS123); NRS123, passage 10, selection group DAP + TIA): 0.5 µg/mL | MIC (S. aureus MW2 (NRS123); NRS123, passage 10, selection group DAP + TMP/SMX): 1 µg/mL | MIC (S. aureus MW2 (NRS123); NRS123, passage 10, selection group DAP + TR-700): 1 µg/mL | MIC (S. aureus MW2 (NRS123); NRS123, passage 10, selection group DAP + TR-705): 0.5 µg/mL | MIC (S. aureus MW2 (NRS123); NRS123, passage 10, selection group DAP + VAN): 0.5 µg/mL | MIC (S. aureus MW2 (NRS123); NRS123, passage 15, selection group DAP): 0.5 µg/mL (≈ 1.01 µM) | MIC (S. aureus MW2 (NRS123); NRS123, passage 15, selection group DAP + CLI): 0.5 µg/mL | MIC (S. aureus MW2 (NRS123); NRS123, passage 15, selection group DAP + LZD): 1 µg/mL | MIC (S. aureus MW2 (NRS123); NRS123, passage 15, selection group DAP + TET): 0.25 µg/mL | MIC (S. aureus MW2 (NRS123); NRS123, passage 15, selection group DAP + TIA): 0.5 µg/mL | MIC (S. aureus MW2 (NRS123); NRS123, passage 15, selection group DAP + TMP/SMX): 1 µg/mL | MIC (S. aureus MW2 (NRS123); NRS123, passage 15, selection group DAP + TR-700): 1 µg/mL | MIC (S. aureus MW2 (NRS123); NRS123, passage 15, selection group DAP + TR-705): 0.5 µg/mL | MIC (S. aureus MW2 (NRS123); NRS123, passage 15, selection group DAP + VAN): 0.5 µg/mL | MIC (S. aureus MW2 (NRS123); NRS123, passage 20, selection group DAP): 0.5 µg/mL (≈ 1.01 µM) | MIC (S. aureus MW2 (NRS123); NRS123, passage 20, selection group DAP + CLI): 0.5 µg/mL | MIC (S. aureus MW2 (NRS123); NRS123, passage 20, selection group DAP + LZD): 1 µg/mL | MIC (S. aureus MW2 (NRS123); NRS123, passage 20, selection group DAP + TET): 0.25 µg/mL | MIC (S. aureus MW2 (NRS123); NRS123, passage 20, selection group DAP + TIA): 0.5 µg/mL | MIC (S. aureus MW2 (NRS123); NRS123, passage 20, selection group DAP + TMP/SMX): 0.5 µg/mL | MIC (S. aureus MW2 (NRS123); NRS123, passage 20, selection group DAP + TR-700): 1 µg/mL | MIC (S. aureus MW2 (NRS123); NRS123, passage 20, selection group DAP + TR-705): 0.5 µg/mL | MIC (S. aureus MW2 (NRS123); NRS123, passage 20, selection group DAP + VAN): 0.5 µg/mL | MIC (S. aureus MW2 (NRS123); NRS123, passage 25, selection group DAP): 0.25 µg/mL (≈ 0.506 µM) | MIC (S. aureus MW2 (NRS123); NRS123, passage 25, selection group DAP + CLI): 0.5 µg/mL | MIC (S. aureus MW2 (NRS123); NRS123, passage 25, selection group DAP + LZD): 0.25 µg/mL | MIC (S. aureus MW2 (NRS123); NRS123, passage 25, selection group DAP + TET): 0.25 µg/mL | MIC (S. aureus MW2 (NRS123); NRS123, passage 25, selection group DAP + TIA): 0.5 µg/mL | MIC (S. aureus MW2 (NRS123); NRS123, passage 25, selection group DAP + TMP/SMX): 0.5 µg/mL | MIC (S. aureus MW2 (NRS123); NRS123, passage 25, selection group DAP + TR-700): 1 µg/mL | MIC (S. aureus MW2 (NRS123); NRS123, passage 25, selection group DAP + TR-705): 0.5 µg/mL | MIC (S. aureus MW2 (NRS123); NRS123, passage 25, selection group DAP + VAN): 0.5 µg/mL | MIC (S. aureus MW2 (NRS123); NRS123, passage 30, selection group DAP): 0.25 µg/mL (≈ 0.506 µM) | MIC (S. aureus MW2 (NRS123); NRS123, passage 30, selection group DAP + CLI): 0.25 µg/mL | MIC (S. aureus MW2 (NRS123); NRS123, passage 30, selection group DAP + LZD): 0.5 µg/mL | MIC (S. aureus MW2 (NRS123); NRS123, passage 30, selection group DAP + TET): 0.25 µg/mL | MIC (S. aureus MW2 (NRS123); NRS123, passage 30, selection group DAP + TIA): 0.5 µg/mL | MIC (S. aureus MW2 (NRS123); NRS123, passage 30, selection group DAP + TMP/SMX): 0.5 µg/mL | MIC (S. aureus MW2 (NRS123); NRS123, passage 30, selection group DAP + TR-700): 0.5 µg/mL | MIC (S. aureus MW2 (NRS123); NRS123, passage 30, selection group DAP + TR-705): 0.5 µg/mL | MIC (S. aureus MW2 (NRS123); NRS123, passage 30, selection group DAP + VAN): 0.25 µg/mL | MIC (S. aureus MW2 (NRS123); NRS123, read-out: DAP MIC by the end of the experiment (selection of DAP^ns strains), MW2, passaged with DAP alone or with co-selecting agent at ¼ MIC, CLSI breakpoint): > 1 µg/mL

CC1(C)S[C@@H]2[C@H](NC(=O)[C@H](N)c3ccccc3)C(=O)N2[C@H]1C(=O)O [ampicillin]
prevention of the emergence of daptomycin resistance [1]: prevented or greatly delayed selection of daptomycin-nonsusceptible mutants

Gentamicin
increase of MIC in parallel to the increase in the daptomycin MIC [1]: two-fold | prevention of the emergence of daptomycin resistance [1]: unable to prevent the emergence of daptomycin resistance
